Assay results as given in US7119256B2, “Gene encoding acetolactate synthase” (priority 2000, dated 2006).

Key:
mutant ALS protein = mutant ALS protein (Oryza sativa subsp. japonica, UniProt Q6K2E8, S627I/W548L); test: Herbicide sensitivity of crude mutant ALS (W548L and S627I) expressed in E. coli, in presence of valine; format: biochemical, rice; parameters: the cDNA containing a full length mutant ALS gene could be obtained; made in house; host or cells: E. coli JM 105, pGEX-4T-3; crude enzyme solution; conditions: crude enzyme from E. coli, valine added
Description: (§1) Preparation and purification of ALS from E. coli were performed by the following method. First, a pellet of the transformant E. coli stored at −80° C. was suspended in ALS extraction buffer (potassium phosphate buffer (pH 7.5) containing 30% glycerol and 0.5 mM MgCl2). Specifically, 2.5 ml of the buffer was added to the pellet obtained from 50 ml of the culture solution. The suspension was subjected to ultrasonication (Heat Systems-Ultrasonics, Sonicator W-225R, micro chip, output control 8, interval of approximately 1 sec, twice (40 sec each)), and subjected to centrifugation at 15000×g, 4° C. for 20 min, thereby obtaining the supernatant as a crude enzyme solution.
(§2) Herbicide sensitivity of mutant ALS protein was examined using the crude enzyme solution obtained in Example 4. Herbicide sensitivity test was performed in the manner same as that in Example 2. In the herbicide sensitivity test, three herbicides, bispyribac-sodium, pyrithiobac-sodium, and pyriminobac were used as PC herbicides; four drugs, chlorsulfuron, bensulfuron-methyl, pyrazosulfuron-ethyl and imazosulfuron were used as sulfonylurea herbicides; and two drugs, imazaquin, and imazapyr were used as imidazolinon herbicides.
Solutions containing these herbicides at certain concentrations (bispyribac-sodium and pyrithiobac-sodium were aqueous solutions, others were acetone solutions) were added to reaction solutions before addition of the mutant ALS protein. The final concentration of acetone was 1%. In addition, since an ALS protein from the rice cDNA expressed within E. coli is insusceptible to valine (Kil et al., J. Biochem. Mol. Biol. 31 287–295, 1998), a herbicide sensitivity test was performed under conditions in which ALS activity derived from E. coli was inhibited with valine.

S627I mutant ALS = biological target: T1, S627I mutant ALS (Oryza sativa subsp. japonica, UniProt Q6K2E8, S627I); test: Herbicide sensitivity of crude ALS with S627I mutation only, 1 mM valine; format: biochemical, rice; conditions: crude enzyme
T1 construct: one type of cDNA containing a full length ALS gene could be obtained from a cDNA library derived from the wild type; made in house; host or cells: E. coli JM 109, pGEX-2T backbone; crude enzyme solution
Description: A plasmid having W548L mutant ALS gene or a plasmid having S627I mutant ALS gene was transformed into E. coli strain JM 109. The colonies obtained from transformation were subjected to liquid culture, expression of GST induction protein was induced in the same manner as in Examples 4 and 5, a crude enzyme solution was prepared, and then herbicide sensitivity of ALS was examined in the presence of 1 mM valine.

[1] = system: callus of the wild type rice plant (Nippon-bare); test: Bispyribac-sodium sensitivity of callus of wild type rice plant; format: cell-based
[2] = system: rice plant transformed with the mutant ALS gene; test: Foliar spray of bispyribac-sodium on transformant rice plants, growth survey; format: in vivo, rice (Nippon-bare); conditions: 1 kg of a.i./ha with 0.2% surfactant K, sprayed over leaves and stems; about 40 days after spraying
Description: Of 80 hygromycin resistant transformant rice plants potted, those which grew normally at the leaf stage 5 were 27 plants to which the mutant ALS gene had been introduced and 46 plants to which the wild type ALS gene had been introduced. Plants containing the wild type ALS gene introduced therein tended to grow healthier than those containing the mutant ALS gene therein. At this time, 4 plants containing the mutant ALS gene introduced therein and 5 plants containing the wild type ALS gene introduced therein were appropriately selected, and 1 kg of a.i./ha bispyribac-sodium salt supplemented with 0.2% surfactant K was sprayed over the leaves and stems. In FIG. 40, the plant length A was about 90 cm.

wild type ALS protein = biological target: T2, wild type ALS protein (Oryza sativa subsp. japonica, UniProt Q6K2E8); test: Herbicide sensitivity of crude wild type ALS expressed in E. coli, in presence of valine; format: biochemical, rice; parameters: one type of cDNA containing a full length ALS gene could be obtained from a cDNA library derived from the wild type; made in house; host or cells: E. coli JM 105, pGEX-2T; crude enzyme solution (sonicate supernatant); conditions: crude enzyme from E. coli, valine added
T2 sequence (Q6K2E8 44-644): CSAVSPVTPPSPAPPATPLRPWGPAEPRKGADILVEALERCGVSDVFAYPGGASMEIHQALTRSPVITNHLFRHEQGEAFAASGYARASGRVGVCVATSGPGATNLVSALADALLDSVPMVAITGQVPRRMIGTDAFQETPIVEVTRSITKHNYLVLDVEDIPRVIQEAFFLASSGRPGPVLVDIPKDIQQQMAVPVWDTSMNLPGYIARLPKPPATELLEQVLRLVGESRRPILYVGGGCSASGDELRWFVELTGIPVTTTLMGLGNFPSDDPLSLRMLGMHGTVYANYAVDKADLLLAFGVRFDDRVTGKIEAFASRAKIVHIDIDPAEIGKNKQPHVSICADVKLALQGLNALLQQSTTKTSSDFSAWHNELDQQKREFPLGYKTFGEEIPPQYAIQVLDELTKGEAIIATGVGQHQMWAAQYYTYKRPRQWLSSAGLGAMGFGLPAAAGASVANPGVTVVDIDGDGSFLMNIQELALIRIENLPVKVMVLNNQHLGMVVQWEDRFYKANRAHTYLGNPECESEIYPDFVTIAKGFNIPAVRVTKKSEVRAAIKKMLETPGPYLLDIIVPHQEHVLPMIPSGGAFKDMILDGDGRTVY
Description: as §1
as §2, with “herbicides. […]” for “herbicides.”

[3] = system: callus of a rice plant (Nippon-bare) transformed with a mutant ALS gene; test: Bispyribac-sodium sensitivity of calli of rice transformed with the mutant ALS gene; format: cell-based
Description: Simultaneously with the above described potting, part of the calli which had not redifferentiated (9 calli) (FIG. 35) was sub-cultured on solid media for production of a bispyribac-sodium resistant callus used in Example 1. The solid media contained 10 μM bispyribac-sodium. Thus, 6 out of 9 calli grew normally. […] Accordingly, 6 calli grown on a solid medium containing 10 μM bispyribac-sodium were all shown to have strong bispyribac-sodium resistance.

Sequence of mutant ALS protein (Q6K2E8 44-644 W548L/S627I): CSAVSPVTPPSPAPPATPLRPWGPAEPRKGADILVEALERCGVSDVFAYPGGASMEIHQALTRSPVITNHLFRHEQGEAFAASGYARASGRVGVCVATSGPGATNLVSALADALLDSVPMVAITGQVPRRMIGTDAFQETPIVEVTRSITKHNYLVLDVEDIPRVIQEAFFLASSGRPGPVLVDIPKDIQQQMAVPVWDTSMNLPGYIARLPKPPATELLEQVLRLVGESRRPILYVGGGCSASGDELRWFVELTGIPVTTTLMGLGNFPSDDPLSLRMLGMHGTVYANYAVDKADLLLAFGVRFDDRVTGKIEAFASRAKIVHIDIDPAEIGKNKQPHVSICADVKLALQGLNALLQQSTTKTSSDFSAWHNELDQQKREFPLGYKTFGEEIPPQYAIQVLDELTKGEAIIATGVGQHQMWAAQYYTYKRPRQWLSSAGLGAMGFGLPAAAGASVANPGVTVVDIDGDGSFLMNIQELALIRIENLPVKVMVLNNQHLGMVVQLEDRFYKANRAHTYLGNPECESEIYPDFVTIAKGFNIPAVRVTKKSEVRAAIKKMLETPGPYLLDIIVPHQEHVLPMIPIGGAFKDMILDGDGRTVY
T1 sequence (Q6K2E8 44-644 S627I): as the sequence (Q6K2E8 44-644 W548L/S627I) above, with L505W counted along it

Row | Structure (SMILES) | mutant ALS activity in the presence of herbicide (mutant ALS protein) | resistance of the mutant ALS protein to herbicide compared to wild type ALS protein (mutant ALS protein) | resistance imparted by S627I mutation alone (S627I mutant ALS) | drug sensitivity of wild type callus [1] | growth of plant containing the mutant ALS gene after spraying [2] | wild type ALS activity in the presence of herbicide (wild type ALS protein) | calli that grew normally on solid medium ([3]; 10 μM bispyribac-sodium) | drug sensitivity of transformant callus in liquid culture ([3]; one of the 6 normally growing calli)
1 | COc1cc(OC)nc(Oc2cccc(Oc3nc(OC)cc(OC)n3)c2C(=O)[O-])n1.[Na+] [Bispyribac-sodium, bispyribac-sodium] | not inhibited at all | best resistance | imparted resistance | showed bispyribac-sodium sensitivity | grew almost normally | inhibited | 6 out of 9 | showed bispyribac-sodium resistance
2 | COc1nc(C)nc(NC(=O)NS(=O)(=O)c2ccccc2Cl)n1 [Chlorsulfuron, chlorsulfuron] | – | moderate | imparted no obvious resistance | – | – | – | – | –
